Patent US20220010258A1, “DEVICE THAT CAN SERVE AS A HEMATO-ENCEPHALITIC BARRIER MODEL” (priority 2017, published 2022)

What was measured:
[1] = known ability; cited from earlier work
P-glycoprotein = assay: Functionality of the P-glycoprotein: passage of rhodamine 123 with or without Zosuquidar, primary murine devices; format: in vitro ADME, mouse
Description: This functionality test is carried out with rhodamine 123, because it is known that this molecule as a substrate for the P-glycoprotein is expelled by the P-glycoprotein into the luminal compartment, which thus limits its passage through the device. The culture media are replenished: 1 mL in the abluminal compartment and 250 μL in the luminal compartment either containing or not containing the Zosuquidar inhibitor of P-glycoprotein P at 5 μM (Dantzig et al. 1996). The devices are incubated for 2 hrs in the incubator. Then, 250 μL of medium containing 2 μM rhodamine 123 with or without 5 μM Zosuquidar are added into the luminal compartment and incubated for 1 hr in the incubator. […] The reading of the fluorescence intensity is done on the same apparatus as for the permeability test (described above). The λex of the rhodamine is 500 nm and the λem is 524 nm.
Indeed it is known that rhodamine 123 as a substrate for glycoprotein P is expelled by the glycoprotein P into the luminal compartment, which limits the passage thereof through the device. Zosuquidar is an inhibitor of P-glycoprotein, therefore its use should limit the efflux of rhodamine 123 into the luminal compartment.
As in Example 4, the passage of rhodamine 123 in the presence or absence of Zosuquidar was studied.

P-gp glycoprotein = assay: Functionality of P-glycoprotein in the commercially available device (Rhodamine 123 with or without Zosuquidar); format: in vitro ADME, rat; conditions: commercially available model
Description: Here again, the functionality of the commercially available model was evaluated by studying the passage of Rhodamine 123 in the presence or absence of the specific inhibitor of the P-gp glycoprotein, Zosuquidar.

P-gp efflux pump = assay: Functionality of P-glycoprotein on murine devices with immortalised cell lines

NCCc1ccc(O)c(O)c1 [DA, Dopamine]
Passage through the HEB [1]: −

rhodamine 123
passage of Rhodamine123 to the luminal side after addition into the abluminal compartment (P-glycoprotein; 24- and 96-well format devices): comparable to cell-free HEBs | passage of Rhodamine123 to the abluminal side (P-glycoprotein; 24- and 96-well format devices, added luminal): passes very little on to the abluminal side | decrease of the passage of rhodamine 123 to the abluminal compartment as compared to the device without cells (P-glycoprotein; device WT, 1 hr incubation): 72.6% | efflux of Rhodamine123 (P-gp glycoprotein; regardless of the side where it is deposited): 97% | limitation of the passage of Rhodamine 123 on the abluminal side (P-gp efflux pump; 12-, 24-, and 96 well plate formats): more than 60%

OC[C@H]1O[C@@](CO)(O[C@H]2O[C@H](CO)[C@@H](O)[C@H](O)[C@H]2O)[C@@H](O)[C@@H]1O [SUC, Sucrose]
Passage through the HEB [1]: +

O=C1CN=C(c2ccccn2)c2cc(Br)ccc2N1 [BROMO, Bromazepam]
Passage through the HEB [1]: +

Clc1ccc(C(c2ccccc2Cl)C(Cl)Cl)cc1 (centres unmarked) [MITO, Mitotane]
Passage through the HEB [1]: −

O[C@@H](COc1cccc2ncccc12)CN1CCN([C@@H]2c3ccccc3[C@@H]3[C@H](c4ccccc42)C3(F)F)CC1 [Zosuquidar]
inhibition of the efflux (of rhodamine 123) by the specific P-glycoprotein inhibitor (P-glycoprotein; 5 μM Zosuquidar, device WT): 57.3% | effect on P-gp functionality (P-glycoprotein; 24- and 96-well format devices): inhibited | effect of Zosuquidar on Rhodamine 123 passage (P-gp glycoprotein): no effect | effect of the specific Glycoprotein P inhibitor (P-gp efflux pump; all the formats): does not show any effect | Passage through the HEB [1]: −
